The values below come from patent US20140121236A1, “Compositions and Methods for Treating Myotonic Dystrophy Type 1” (UNIVERSITY OF SOUTHERN CALIFORNIA, priority 2012, published 2014).

Common to all, as to format: cell-based, human
Data set [1] concerns CUG-RNA foci in DM1 myoblasts. Put plainly: FISH analysis of nuclear CUG-RNA foci in DM1 myoblasts. To be noted: 4 days, FISH. As for the experimental part:
DM1 myoblasts were then treated with 10 μM of either RCN-001 or the vehicle (DMSO) for 4 days and then examined by FISH using a Cy3 (CAG)10 probe.
Normal myoblasts were purchased from Lonza, Inc. DM1 myoblasts were a gift from Dr. Charles Thornton. Normal and DM1 myoblasts were maintained in SkGM Medium (Lonza, Inc.) containing 10% Fetal Bovine Serum and 1% Penicillin-Streptomycin, 5% CO2 at 37° C. Human Embryonic Kidney 293 Cells (293HEK) were maintained in Dulbecco's Modification of Eagle's Medium (DMEM) from Cellgro supplemented with 10% Fetal Bovine Serum and 1% Penicillin-Streptomycin, 5% CO2 at 37° C.
CUG-RNA foci were detected by performing FISH on untreated DM1 myoblasts and DM1 myoblasts following treatment. For FISH analysis, DM1 myoblasts were plated on a 24-well clear bottom polystyrene plate with circular glass coverslips followed by treatment. Prior to FISH analysis, cells were fixed using 4% paraformaldehyde in 1×PBS for 20 min at room temperature. FISH analysis was performed using a Cy3 conjugated (CAG)10 oligonucleotide probe (Integrated DNA Technologies, Inc.) as described by Taneja et al, 1995 and Dansithong et al, 2005. CUG-RNA foci were observed as a red signal using fluorescence microscopy. Immunofluorescence was performed as described by Dansithong et al, 2008. Endogenous SHARP was detected using SHARP polyclonal antibodies from Bethyl at a dilution of 1:1000. The secondary antibodies conjugated with FITC (Invitrogen) were used at a 1:2000 dilution. Chloride channel 1 (Clcn1 a.k.a. CIC-1) was detected using CIC-1 polyclonal antibodies from Santa Cruz. The secondary antibodies conjugated with Alexa Flour 488 (Invitrogen) were used at a 1:2000 dilution. FISH analysis in mouse muscle section was carried out as described in Mancodi et al, 2000 (9).

Data set [2] deals with DM1 myoblasts. Put plainly: Toxicity by shape and size of the nuclei of DM1 myoblasts. Also on record: key: −: Nontoxic; +: 10% alterations in nuclei shape and size; ++: 20-30% alterations in nuclei shape and size; +++: 40-50% alterations in nuclei shape and size; ++++: 60% alterations in nuclei shape and size; +++++: very sick, almost no surviving cells. Conditions: 4 days.

For data set [3], the system named is DM1 myoblasts. The experiment in a line: Viability of DM1 myoblasts by counting surviving cells. Conditions: 4 days, surviving cells vs vehicle control.

With `CCCCCCc1cc2cc(C(N)=O)/c(=N/c3ccccc3OC)oc2cc1O` [RCN-019, (Z)-6-hexyl-7-hydroxy-2-((2-methoxyphenyl)imino)-2H-chromene-3-carboxamide], in data set [1] (Table 2, 10 μM), the “# of Foci (percentage) 0-1: Percentage of cells with no or 1 nuclear foci” value turned out to be 14 percentage and the “# of Foci (percentage) >2: Percentage of cells with 2 or greater nuclear foci” value came out at 86 percentage. Moreover, the “Toxicity: Toxic” value in data set [2] (Table 2, 10 μM) was “++ (20-30% alterations in nuclei shape and size)”. Besides, the “Toxicity: Viable” value in data set [3] (Table 2, 10 μM) is reported as “+++ (50-60% cell survival)”.

Take `CCCCCCc1cc2cc(C(=O)Nc3cccc(Br)c3)c(=O)oc2cc1O` [RCN-018, N-(3-bromophenyl)-6-hexyl-7-hydroxy-2-oxo-2H-chromene-3-carboxamide]: the “Toxicity: Toxic” value in data set [2] (Table 2, 10 μM) is reported as “+++++”. Moreover, the “Toxicity: Viable” value in data set [3] (Table 2, 10 μM) was “− (less than 10% cell survival)”.

In the case of `CCCCCCc1cc2cc(C(=O)Nc3ccc(Cl)c(Cl)c3)c(=O)oc2cc1O` [RCN-017, N-(3,4-dichlorophenyl)-6-hexyl-7-hydroxy-2-oxo-2H-chromene-3-carboxamide], the “Toxicity: Toxic” value in data set [2] (Table 2, 10 μM) is “+++++”. The “Toxicity: Viable” value in data set [3] (Table 2, 10 μM) is on record as “− (less than 10% cell survival)”.

As for `CCCCCCc1cc2cc(C(=O)Nc3cccc(OC)c3)c(=O)oc2cc1O` [RCN-014, 6-hexyl-7-hydroxy-N-(3-methoxyphenyl)-2-oxo-2H-chromene-3-carboxamide], the “# of Foci (percentage) 0-1: Percentage of cells with no or 1 nuclear foci” value in data set [1] (Table 1, 10 μM) was 24 percentage; in data set [1] (Table 2, 10 μM) it was 24 percentage. In addition, the “# of Foci (percentage) >2: Percentage of cells with 2 or greater nuclear foci” value in data set [1] (Table 1, 10 μM) is 76 percentage; in data set [1] (Table 2, 10 μM), 76 percentage. The “Toxicity: Toxic” value is “+ (10% alterations in nuclei shape and size)” in data set [2] (Table 1, 10 μM); “+ (10% alterations in nuclei shape and size)” in data set [2] (Table 2, 10 μM). Also, the “Toxicity: Viable” value in data set [3] (Table 1, 10 μM) is given as “++++ (70-80% cell survival)”; in data set [3] (Table 2, 10 μM) it was “++++ (70-80% cell survival)”.

As to `CCCCCCc1cc2cc(-c3cn4ccc(C)cc4n3)c(=O)oc2cc1O` [RCN-013, 6-hexyl-7-hydroxy-3-(7-methylimidazo[1,2-a]pyridine-2-yl)-2H-chromen-2-one], in data set [1] (Table 4, 10 μM), the “# of Foci (percentage) 0-1: Percentage of cells with no or 1 nuclear foci” value came to 13 percentage and the “# of Foci (percentage) >2: Percentage of cells with 2 or greater nuclear foci” value is given as 87 percentage. The “Toxicity: Toxic” value in data set [2] (Table 4, 10 μM) was “+++ (40-50% alterations in nuclei shape and size)”. For the same compound, the “Toxicity: Viable” value in data set [3] (Table 4, 10 μM) is given as “+++ (50-60% cell survival)”.

On to `CCc1cc2c(CN3CCN(S(=O)(=O)Cc4ccccc4)CC3)cc(=O)oc2cc1O` [RCN-020, 4-((4-(benzylsulfonyl)piperazin-1-yl)methyl)-6-ethyl-7-hydroxy-2H-chromen-2-one], for which the “# of Foci (percentage) 0-1: Percentage of cells with no or 1 nuclear foci” value in data set [1] (Table 3, 10 μM) is 15 percentage; in data set [1] (Table 4, 10 μM), 15 percentage. Besides, the “# of Foci (percentage) >2: Percentage of cells with 2 or greater nuclear foci” value in data set [1] (Table 3, 10 μM) came out at 85 percentage; in data set [1] (Table 4, 10 μM), 85 percentage. Besides, the “Toxicity: Toxic” value in data set [2] (Table 3, 10 μM) is “−”; in data set [2] (Table 4, 10 μM), “−”. The “Toxicity: Viable” value in data set [3] (Table 3, 10 μM) was “+++++ (90-100% cell survival)”; in data set [3] (Table 4, 10 μM), “+++++ (90-100% cell survival)”.

As to `CCCCCCc1cc2cc(-c3nnc(-c4ccc([N+](=O)[O-])cc4)o3)c(=O)oc2cc1O` [RCN--005], in data set [1] (Table 1, 10 μM), the “# of Foci (percentage) 0-1: Percentage of cells with no or 1 nuclear foci” value is 14 percentage and the “# of Foci (percentage) >2: Percentage of cells with 2 or greater nuclear foci” value came to 86 percentage. The “Toxicity: Toxic” value in data set [2] (Table 1, 10 μM) is “++++ (60% alterations in nuclei shape and size)”. Also, in data set [3] (Table 1, 10 μM), the “Toxicity: Viable” value was “+ (10-20% cell survival)”.

As to `CCCCCCc1cc2cc(C(=O)Nc3ccc(Br)cc3)c(=O)oc2cc1O` [RCN-015, N-(4-bromophenyl)-6-hexyl-7-hydroxy-2-oxo-2H-chromene-3-carboxamide], in data set [1] (Table 2, 10 μM), the “# of Foci (percentage) 0-1: Percentage of cells with no or 1 nuclear foci” value worked out at 29 percentage and the “# of Foci (percentage) >2: Percentage of cells with 2 or greater nuclear foci” value is 71 percentage. For the same compound, the “Toxicity: Toxic” value in data set [2] (Table 2, 10 μM) was “+++ (40-50% alterations in nuclei shape and size)”. For the same compound, the “Toxicity: Viable” value in data set [3] (Table 2, 10 μM) is given as “+++ (50-60% cell survival)”.
